From ChEMBL document CHEMBL1159368, “Phenolic compounds from Nymphaea odorata” (J Nat Prod, 2003) come the findings set out here.

A word on the IC50: it is the concentration needed to halve the response being measured. A high value points to a need for much substance.

SMILES strings stand for the structures. Converted amounts (≈) assume the structure as drawn.

This experiment can be described thus: Inhibition of Saccharomyces cerevisiae FAS.
`O=c1c(O[C@@H]2O[C@H](CO)[C@H](O)[C@H](O)[C@H]2O)c(-c2cc(O)c(O)c(O)c2)oc2cc(O)cc(O)c12`: the IC50 was 25 µg/mL (≈ 52 µM).

`C[C@@H]1O[C@@H](Oc2c(-c3ccc(O)cc3)oc3cc(O)cc(O)c3c2=O)[C@H](O)[C@H](O)[C@H]1O` [AFZELIN] returned an IC50 of 45 µg/mL (≈ 104 µM). The figure for `C/C=C/C/C=C/CCC(=O)[C@H]1O[C@H]1C(N)=O` [CERULENIN] is 0.19 µg/mL (≈ 0.851 µM). The figure for `C[C@@H]1O[C@@H](Oc2c(-c3ccc(O)c(O)c3)oc3cc(O)cc(O)c3c2=O)[C@H](O)[C@H](O)[C@H]1O` [QUERCITRIN] is 50 µg/mL (≈ 112 µM).
